19 compounds from US11459338B2, “Heterocyclic compounds as PRMT5 inhibitors” (JUBILANT EPISCRIBE LLC, priority 2018, dated 2022) can be followed below.

One assay has as its target T1, PRMT5/MEP50 (Homo sapiens, UniProt O14744).
T1 construct: Full-length human PRMT5 (NP_006100)
Description: PRMT5/MEP50 enzyme assay on peptide substrates (3H-SAM Flashplate). The class given is biochemical. Conditions: PRMT5/MEP50 10 nM, H4 1-15aa peptide 100 nM, 3H-SAM 1 μM.

In assay [1] the test system is Symmetric di-methyl arginine in Z-138 cells. As to the kind of experiment: Z-138 methylation assay, ELISA for detection of symmetric di-methyl arginine. The class given is cell-based. Conditions: Homo sapiens. The procedure: General reagents. […] Iscove's Modified Dulbecco's Medium (IMDM), Horse serum, penicillin-streptomycin, PBS and TMB-ELISA substrate solution were purchased from ThermoFisher Scientific. Symmetric di-methyl arginine antibody was purchased from Cell Signaling Technologies.Anti-SNRPD3/SmD3 antibody was purchased from Sigma-Aldrich.
ELISA for detection of Symmetric di-methyl arginine. […] A compound source plate was prepared by performing ten-point 3-fold dilution in DMSO, such that the final top concentration of the compound was 10 μM, and DMSO was 0.3%. The total volume of compounds added was 20 μL. The cells were incubated for 96 h at 37° C., 5% CO2. Z-138 cells were directly lysed in media with 3× Lysis Buffer (1×: 10 mM HEPES pH7.9, 5 mM MgCl2, 1M NaCl, 0.25M Sucrose, 1% Triton X-100, 1 mM PMSF, Protease & Phosphatase inhibitors). […] Plates were incubated at room temperature for a minimum of 3 h and then washed with PBS-Tween 20 (0.05%). The plates were blocked with 5% BSA at room temperature for 1 h, washed with PBS-Tween 20 and incubated with primary antibody at 4 C overnight.

For another assay, the system named is Z-138 cells. As to the kind of experiment: Z-138 long term proliferation assay (Cell Titer Glo). In kind it is cell-based. Conditions: Homo sapiens; for GI50: 192 h, Z-138 cells, cell viability, day 8, read-out: PRMT5 Z138 GI50 Day 8 μM; for IC50: Z-138, 192 h, summary of Table 1, read-out: IC50 value (all the three assays): Z138 GI50 Day 8. Summed up: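 Z-138 cells exposed to ten-point 3-fold dilutions (top 10 μM, 0.3% DMSO) for 96 h at 37° C., 5% CO2, then re-dosed for four more days.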

Where [2] appears, read: Z-138, 96 h, summary of Table 1, read-out: IC50 value (all the three assays): Z138 SDMA ELISA Day 4.
Where [3] appears, read: Z-138 cells, 96 h (day 4), read-out: PRMT5 Z138 SDMA ELISA Day 4 μM.

Where two headings read alike, the source gives them in different places.

T1 sequence (O14744 whole entry): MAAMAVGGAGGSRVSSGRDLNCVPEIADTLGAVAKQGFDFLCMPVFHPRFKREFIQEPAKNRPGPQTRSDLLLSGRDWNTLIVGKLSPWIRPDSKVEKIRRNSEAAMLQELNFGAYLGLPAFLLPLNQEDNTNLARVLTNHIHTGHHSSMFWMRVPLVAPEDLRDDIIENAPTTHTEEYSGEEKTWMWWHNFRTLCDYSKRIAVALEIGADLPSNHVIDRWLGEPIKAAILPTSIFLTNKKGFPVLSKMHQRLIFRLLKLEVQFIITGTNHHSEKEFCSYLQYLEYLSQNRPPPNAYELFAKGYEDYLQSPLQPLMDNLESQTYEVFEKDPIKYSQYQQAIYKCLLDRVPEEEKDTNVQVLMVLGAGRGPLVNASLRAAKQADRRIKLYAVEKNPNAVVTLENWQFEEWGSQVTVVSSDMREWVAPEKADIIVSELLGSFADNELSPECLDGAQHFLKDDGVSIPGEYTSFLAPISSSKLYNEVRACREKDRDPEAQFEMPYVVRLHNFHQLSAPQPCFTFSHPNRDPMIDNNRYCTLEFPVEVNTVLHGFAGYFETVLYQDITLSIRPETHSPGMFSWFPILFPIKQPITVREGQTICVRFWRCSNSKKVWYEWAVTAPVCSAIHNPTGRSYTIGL
T1 sequence (Q9BQA1 whole entry partner): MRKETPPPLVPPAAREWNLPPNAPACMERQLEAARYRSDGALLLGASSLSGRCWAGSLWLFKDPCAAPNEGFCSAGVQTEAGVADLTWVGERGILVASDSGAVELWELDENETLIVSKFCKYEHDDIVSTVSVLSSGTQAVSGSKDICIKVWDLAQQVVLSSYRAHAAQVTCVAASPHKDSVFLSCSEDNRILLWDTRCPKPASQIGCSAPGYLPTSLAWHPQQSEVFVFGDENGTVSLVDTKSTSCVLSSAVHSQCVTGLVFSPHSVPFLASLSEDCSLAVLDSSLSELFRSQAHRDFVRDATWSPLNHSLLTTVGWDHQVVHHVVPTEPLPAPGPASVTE

`Cc1ccc2nc(C(=O)NCC(O)CN3CCc4ccccc4C3)cn2c1` (stereo not drawn) [Example 2, N-(3-(3,4-dihydroisoquinolin-2(1H)-yl)-2-hydroxypropyl)-6-methylimidazo[1,2-a]pyridine-2-carboxamide]: the IC50 (against PRMT5/MEP50; in assay [1] (setting [2]); in assay [1] (setting [3]); with Z-138 cells) was 0.01 to 1 µM in each case. In addition, the GI50 with Z-138 cells was in the range of 0.01 to 1 µM.

Turning to `CCn1cc(-c2ccc3nc(C(=O)NC[C@H](O)CN4CCc5ccccc5C4)cn3c2)cn1` [Example 4, (S)—N-(3-(3,4-dihydroisoquinolin-2(1H)-yl)-2-hydroxypropyl)-6-(1-ethyl-1H-pyrazol-4-yl)imidazo [1,2-a]pyridine-2-carboxamide], the IC50 (against PRMT5/MEP50; in assay [1] (setting [2]); in assay [1] (setting [3]); in the assay on Z-138 cells) was 0.01 to 1 µM throughout. In the assay on Z-138 cells, the GI50 lay in the range of 0.01 to 1 µM.

Take `CCCc1nc(-c2ccc3nc(C(=O)NC[C@H](O)CN4CCc5ccccc5C4)cn3c2)no1` [Example 5, (S)—N-(3-(3,4-dihydroisoquinolin-2(1H)-yl)-2-hydroxypropyl)-6-(5-propyl-1,2,4-oxadiazol-3-yl)imidazo[1,2-a]pyridine-2-carboxamide]: the IC50 (against PRMT5/MEP50; in assay [1] (setting [2]); in assay [1] (setting [3]); in the assay on Z-138 cells) was 0.01 to 1 µM throughout. Also, in the assay on Z-138 cells, the GI50 was 0.01 to 1 µM.

Turning to `Cc1nc(-c2ccc3nc(C(=O)NC[C@H](O)CN4CCc5ccccc5C4)cn3c2)no1` [Example 6, (S)—N-(3-(3,4-dihydroisoquinolin-2(1H)-yl)-2-hydroxypropyl)-6-(5-methyl-1,2,4-oxadiazol-3-yl)imidazo[1,2-a]pyridine-2-carboxamide], the IC50 (on PRMT5/MEP50; in assay [1] (setting [2]); in assay [1] (setting [3]); with Z-138 cells) was 0.01 to 1 µM throughout. The GI50 in the assay on Z-138 cells was 0.01 to 1 µM.

For `O=C(NC[C@H](O)CN1CCc2ccccc2C1)c1cn2cc(C(F)(F)F)ccc2n1` [Example 8, (S)—N-(3-(3,4-dihydroisoquinolin-2(1H)-yl)-2-hydroxypropyl)-6(trifluoromethyl) imidazo[1,2-a]pyridine-2-carboxamide], the IC50 (against PRMT5/MEP50; in assay [1] (setting [2]); in assay [1] (setting [3]); with Z-138 cells) was 0.01 to 1 µM throughout. Further, the GI50 in the assay with Z-138 cells is 0.01 to 1 µM.

Regarding `COc1ccc2nc(C(=O)NCC(O)CN3CCc4ccccc4C3)cn2c1` (stereo not drawn) [Example 9, N-(3-(3,4-dihydroisoquinolin-2(1H)-yl)-2-hydroxypropyl)-6-methoxyimidazo [1,2a]pyridine-2-carboxamide], the IC50 against PRMT5/MEP50 lay in the range of 1 to 5 µM; in assay [1] (setting [3]), 0.01 to 1 µM. The GI50 in the assay on Z-138 cells was 1 to 5 µM.

Turning to `O=C(NCC(O)CN1CCc2ccccc2C1)c1cn2cc(-c3ccccc3)ccc2n1` (stereo not drawn) [Example 10, N-(3-(3,4-dihydroisoquinolin-2(1H)-yl)-2-hydroxypropyl)-6-phenylimidazo[1,2-a]pyridine-2-carboxamide], the IC50 (on PRMT5/MEP50; in assay [1] (setting [2]); in assay [1] (setting [3]); with Z-138 cells) was 0.01 to 1 µM each time. Moreover, the GI50 in the assay on Z-138 cells lay within 0.01 to 1 µM.

Take `O=C(NCC(O)CN1CCc2ccccc2C1)c1cn2cc(-c3ccc(F)cc3)ccc2n1` (stereo not drawn) [Example 11, N-(3-(3,4-dihydroisoquinolin-2(1H)-yl)-2-hydroxypropyl)-6-(4-fluorophenyl) imidazo[1,2-a]pyridine-2-carboxamide]: the IC50 (against PRMT5/MEP50; in assay [1] (setting [2]); in assay [1] (setting [3]); with Z-138 cells) was 0.01 to 1 µM throughout. In the assay on Z-138 cells, the concentration for 50% growth inhibition (GI50) is 0.01 to 1 µM.

In the case of `Cn1cc(-c2ccc3nc(C(=O)NC[C@H](O)CN4CCc5ccccc5C4)cn3c2)cn1` [Example 13, (S)—N-(3-(3,4-dihydroisoquinolin-2(1H)-yl)-2-hydroxypropyl)-6-(1-methyl-1H-pyrazol-4-yl)imidazo[1,2-a]pyridine-2-carboxamide], the IC50 is greater than 5 µM on PRMT5/MEP50 and 0.01 to 1 µM in assay [1] (setting [3]). In the assay with Z-138 cells, the GI50 is greater than 5 µM.

Take `N#Cc1ccc(-c2ccc3nc(C(=O)NC[C@H](O)CN4CCc5ccccc5C4)cn3c2)cc1` [Example 14, (S)-6-(4-cyanophenyl)-N-(3-(3,4-dihydroisoquinolin-2(1H)-yl)-2-hydroxypropyl) imidazo[1,2-a]pyridine-2-carboxamide]: the IC50 (against PRMT5/MEP50; in assay [1] (setting [2]); in assay [1] (setting [3]); in the assay with Z-138 cells) was 0.01 to 1 µM in each case. In addition, the GI50 in the assay on Z-138 cells is 0.01 to 1 µM.

As for `Cc1noc(C)c1-c1ccc2nc(C(=O)NC[C@H](O)CN3CCc4ccccc4C3)cn2c1` [Example 15, (S)—N-(3-(3,4-dihydroisoquinolin-2(1H)-yl)-2-hydroxypropyl)-6-(3,5-dimethylisoxazol-4-yl)imidazo[1,2-a]pyridine-2-carboxamide], the IC50 (on PRMT5/MEP50; in assay [1] (setting [2]); in assay [1] (setting [3]); in the assay on Z-138 cells) was 0.01 to 1 µM throughout. For the same compound, the GI50 with Z-138 cells was in the range of 0.01 to 1 µM.

Regarding `O=C(NC[C@H](O)CN1CCc2ccccc2C1)c1cn2cc(-c3cc(F)cc(F)c3)ccc2n1` [Example 16, (S)-6-(3,5-difluorophenyl)-N-(3-(3,4-dihydroisoquinolin-2(1H)-yl)-2-hydroxypropyl)imidazo[1,2-a]pyridine-2-carboxamide], the IC50 (against PRMT5/MEP50; in assay [1] (setting [2]); in assay [1] (setting [3]); in the assay on Z-138 cells) was 0.01 to 1 µM in each case. In the assay on Z-138 cells, the 50% growth inhibitory concentration (GI50) was in the range of 0.01 to 1 µM.

Consider `O=C(NC[C@H](O)CN1CCc2ccccc2C1)c1cn2cc(-c3ccc(F)cc3)ccc2n1` [Example 17, (S)—N-(3-(3,4-dihydroisoquinolin-2(1H)-yl)-2-hydroxypropyl)-6-(4fluorophenyl) imidazo[1,2-a]pyridine-2-carboxamide], for which the IC50 (against PRMT5/MEP50; in assay [1] (setting [2]); in assay [1] (setting [3]); in the assay on Z-138 cells) was 0.01 to 1 µM each time. Moreover, the GI50 in the assay on Z-138 cells was 0.01 to 1 µM.

Regarding `O=C(NC[C@H](O)CN1CCc2ccccc2C1)c1cn2cc(C3=CCOCC3)ccc2n1` [Example 19, (S)-6-(3,6-dihydro-2H-pyran-4-yl)-N-(3-(3,4-dihydroisoquinolin-2(1H)-yl)-2-hydroxypropyl)imidazo[1,2-a]pyridine-2-carboxamide], the IC50 (against PRMT5/MEP50; in assay [1] (setting [2]); in assay [1] (setting [3]); in the assay on Z-138 cells) was 0.01 to 1 µM in each case. In addition, the GI50 in the assay on Z-138 cells was 0.01 to 1 µM.

In the case of `O=C(NC[C@H](O)CN1CCc2ccccc2C1)c1cn2cc(-c3cnn([C@@H]4CCOC4)c3)ccc2n1` [Example 20, N—((S)-3-(3,4-dihydroisoquinolin-2(1H)-yl)-2-hydroxypropyl)-6-(1-((R)-tetrahydrofuran-3-yl)-1H-pyrazol-4-yl)imidazo[1,2-a]pyridine-2-carboxamide], the IC50 (at PRMT5/MEP50; in assay [1] (setting [2]); in assay [1] (setting [3]); in the assay on Z-138 cells) was 0.01 to 1 µM throughout. For the same compound, the GI50 with Z-138 cells fell in the range of 0.01 to 1 µM.

As for `CC(=O)N1CC(n2cc(-c3ccc4nc(C(=O)NC[C@H](O)CN5CCc6ccccc6C5)cn4c3)cn2)C1` [Example 23, (S)-6-(1-(1-acetylazetidin-3-yl)-1H-pyrazol-4-yl)-N-(3-(3,4-dihydroisoquinolin-2(1H)-yl)-2-hydroxypropyl)imidazo[1,2-a]pyridine-2-carboxamide], the IC50 (at PRMT5/MEP50; in assay [1] (setting [2]); in assay [1] (setting [3]); in the assay with Z-138 cells) was 0.01 to 1 µM in each case. Further, in the assay with Z-138 cells, the GI50 was 0.01 to 1 µM.

As for `Cn1cc(-c2ccc3nc(C(=O)NC[C@H](O)CN4CCc5ccccc5C4)cn3c2)nn1` [Example 36, (S)—N-(3-(3,4-dihydroisoquinolin-2(1H)-yl)-2-hydroxypropyl)-6-(1-methyl-1H-1,2,3-triazol-4-yl)imidazo[1,2-a]pyridine-2-carboxamide], the IC50 (at PRMT5/MEP50; in assay [1] (setting [2]); in assay [1] (setting [3]); in the assay with Z-138 cells) was 0.01 to 1 µM each time. The GI50 in the assay with Z-138 cells lay in the range of 0.01 to 1 µM.

On to `CC(=O)Nc1ccc2nc(C(=O)NC[C@H](O)CN3CCc4ccccc4C3)cn2c1` [Example 39, (S)-6-acetamido-N-(3-(3,4-dihydroisoquinolin-2(1H)-yl)-2-hydroxypropyl)imidazo[1,2-a]pyridine-2-carboxamide], for which the IC50 (at PRMT5/MEP50; in assay [1] (setting [3])) was 0.01 to 1 µM throughout. In the assay on Z-138 cells, the GI50 lay in the range of 1 to 5 µM.

Regarding `CS(=O)(=O)Nc1ccc2nc(C(=O)NC[C@H](O)CN3CCc4ccccc4C3)cn2c1` [Example 41, (S)—N-(3-(3,4-dihydroisoquinolin-2(1H)-yl)-2-hydroxypropyl)-6-(methylsulfonamido)imidazo[1,2-a]pyridine-2-carboxamide], the IC50 was greater than 5 µM at PRMT5/MEP50 and 0.01 to 1 µM in assay [1] (setting [3]). For the same compound, the GI50 with Z-138 cells is 0.01 to 1 µM.
